The values below come from patent US11685719B2, “Pyridinone MK2 inhibitors and uses thereof” (Xinthera, Inc., priority 2021, dated 2023).

In one experiment the target is p38a/MK2 (Homo sapiens (Human), UniProt P49137+Q16539). The experiment is described as follows: biochemical. The settings on record: 10-point 1:3 dilution, top dose 1 μM; 10 μM ATP, 2 h incubation; read-out: p38a/MK2 (1 μM) Enzyme pIC50 (converted). On the procedure:
(§1) Expression vectors of the recombinant MK2 and PRAK kinases were constructed by cloning of the codon optimized gene sequences of MK2 (Uniprot ID P49137, amino acid fragment F46-H400), or PRAK (Uniprot ID Q81W41, amino acid fragment M1-Q471) into pGEX-4T1 (GE) for over expression of these kinases with N-terminal GST-tag. Protein expression was carried out in E. coli BL21 by growing the hosts in TB medium, induction of protein expression with 0.5 mM IPTG at approximate 0.8 OD600, and incubation of the cultures at 18° C. for 14-20 hours afterwards. The harvested cells were resuspended in […] of Lysis buffer (50 mM Tris-HCl, pH 8.0, 500 mM NaCl, 1 mM DTT, 5% glycerol, and 1 mM PMSF) per gram of wet cell mass and homogenized at 4° C. in a microfluidizer (ATS, Suzhou, China) at 14,000 psi pressure, 3 passes. The cell lysates were clarified by centrifugation and the supernatants containing the GST-fusion proteins were purified by affinity chromatography using GSH-Sepharose (GE) gravity flow columns pre-equilibrated in Buffer A (50 mM Tris-HCl, pH 8.0, 500 mM NaCl, 1 mM DTT, and 5% glycerol). After thorough washing of the columns with Buffer A, the bound GST-proteins were eluted by Buffer B (50 mM Tris, pH 8.0, 500 mM NaCl, 1 mM DTT, 5% glycerol, 10 mM glutathione), followed by size-exclusion purification on Superdex 200 column equilibrated in Buffer A. The purified proteins were concentrated to approximately 1 mg/ml and stored at −80° C.
(§2) This study evaluates the inhibitory potency of invention compound on p38/MK2 pathway vs p38/PRAK pathway. More specially the compound concentration (IC50) was determined that inhibited half of the maximal activation of MK2 or PRAK by p38. MK2 activation study was set up without or with a serial of 10-point 1:3 dilution of invention compound at top dose of 1 or 10 μM, and PRAK activation study was set up without or with a serial of 10-point 1:3 dilution of invention compound at top dose of 300 μM. The MIK2 and PRAK activity were determined by the phosphorylation level of HSP27 peptide conjugated with FITC.

A further experiment concerns the target p38a/PRAK (Homo sapiens (Human), UniProt Q16539). The experiment is described as follows: biochemical. Particulars: 10-point 1:3 dilution, top dose 300 μM; 10 μM ATP, 2 h incubation; read-out: p38a/PRAK Enzyme pIC50 (converted). As to the method: as §1, §2

A value given as a limit tells only on which side of the number the result lay.

Chain of p38a/MK2 (Q16539 whole entry, the tested form may be a part): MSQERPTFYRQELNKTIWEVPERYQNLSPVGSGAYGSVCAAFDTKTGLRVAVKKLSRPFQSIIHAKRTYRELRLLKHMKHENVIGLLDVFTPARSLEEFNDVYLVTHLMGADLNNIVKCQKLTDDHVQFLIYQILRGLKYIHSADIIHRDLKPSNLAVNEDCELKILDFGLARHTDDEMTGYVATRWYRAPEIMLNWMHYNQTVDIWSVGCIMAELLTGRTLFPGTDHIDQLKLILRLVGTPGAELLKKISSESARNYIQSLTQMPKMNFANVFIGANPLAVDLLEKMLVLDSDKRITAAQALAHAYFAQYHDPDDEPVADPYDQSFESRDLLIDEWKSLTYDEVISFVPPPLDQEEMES
Chain of p38a/MK2 (P49137 46-400): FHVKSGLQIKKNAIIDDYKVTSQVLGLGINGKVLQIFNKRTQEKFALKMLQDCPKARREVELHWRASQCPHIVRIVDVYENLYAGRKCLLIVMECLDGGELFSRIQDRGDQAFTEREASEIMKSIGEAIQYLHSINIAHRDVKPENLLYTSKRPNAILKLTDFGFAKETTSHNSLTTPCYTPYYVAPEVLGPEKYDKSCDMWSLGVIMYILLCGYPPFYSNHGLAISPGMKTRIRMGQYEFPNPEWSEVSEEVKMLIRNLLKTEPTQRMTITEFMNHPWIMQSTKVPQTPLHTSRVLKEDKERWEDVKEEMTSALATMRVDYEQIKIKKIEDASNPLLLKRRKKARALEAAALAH
Chain of p38a/PRAK (Q16539 whole entry): as the sequence (Q16539 whole entry, the tested form may be a part) above

With `Cc1cnc(-n2cncc(C(C)(C)O)c2=O)cc1-n1c(C)cc(OCc2ncc(F)cc2F)c(Cl)c1=O` (single isomer, unassigned) [Example 10A, rel-3-chloro-4-[(3,5-difluoropyridin-2-yl)methoxy]-2′-[5-(2-hydroxypropan-2-yl)-6-oxopyrimidin-1-yl]-5′,6-dimethyl-[1,4′-bipyridin]-2-one], the IC50 is 100 nM on p38a/MK2 and 3980 nM on p38a/PRAK.
As for `Cc1cnc(-n2cncc(C(C)(C)O)c2=O)cc1-n1c(C)cc(OCc2ncc(F)cc2F)c(Cl)c1=O` (single isomer, unassigned) [Example 10B, rel-3-chloro-4-[(3,5-difluoropyridin-2-yl)methoxy]-2′-[5-(2-hydroxypropan-2-yl)-6-oxopyrimidin-1-yl]-5′,6-dimethyl-[1,4′-bipyridin]-2-one], the IC50 on p38a/MK2 was over 1000 nM; on p38a/PRAK it was over 316000 nM.
The corresponding values for `Cc1cnc(-n2cccc(C(C)(C)CO)c2=O)cc1-n1c(C)cc(OCc2ncc(F)cc2F)c(Cl)c1=O` (single isomer, unassigned) [Example 11A, rel-3-chloro-4-[(3,5-difluoropyridin-2-yl)methoxy]-2′-[3-(1-hydroxy-2-methylpropan-2-yl)-2-oxopyridin-1-yl]-5′,6-dimethyl-[1,4′-bipyridin]-2-one] are 3.98 nM and 5010 nM.
With `Cc1cnc(-n2cccc(C(C)(C)CO)c2=O)cc1-n1c(C)cc(OCc2ncc(F)cc2F)c(Cl)c1=O` (single isomer, unassigned) [Example 11B, rel-3-chloro-4-[(3,5-difluoropyridin-2-yl)methoxy]-2′-[3-(1-hydroxy-2-methylpropan-2-yl)-2-oxopyridin-1-yl]-5′,6-dimethyl-[1,4′-bipyridin]-2-one], the results for the IC50 at p38a/MK2 and at p38a/PRAK were over 1000 nM and over 316000 nM, respectively.
In the case of `Cc1cnc(-n2cccc(C3(O)CCC3)c2=O)cc1-n1c(C)cc(OCc2ncc(F)cc2F)c(Cl)c1=O` (single isomer, unassigned) [Example 12A, rel-3-chloro-4-[(3,5-difluoropyridin-2-yl)methoxy]-2′-[3-(1-hydroxycyclobutyl)-2-oxopyridin-1-yl]-5′,6-dimethyl-[1,4′-bipyridin]-2-one], the IC50 is 12.6 nM at p38a/MK2 and 7940 nM on p38a/PRAK.
As to `Cc1cnc(-n2cccc(C3(O)CCC3)c2=O)cc1-n1c(C)cc(OCc2ncc(F)cc2F)c(Cl)c1=O` (single isomer, unassigned) [Example 12B, rel-3-chloro-4-[(3,5-difluoropyridin-2-yl)methoxy]-2′-[3-(1-hydroxycyclobutyl)-2-oxopyridin-1-yl]-5′,6-dimethyl-[1,4′-bipyridin]-2-one], the IC50 at p38a/MK2 is over 1000 nM; on p38a/PRAK it was over 316000 nM.
Turning to `Cc1cnc(-n2cc(C(C)(C)O)ccc2=O)cc1-n1c(C)cc(OCc2ncc(F)cc2F)c(Cl)c1=O` (single isomer, unassigned) [Example 13A, rel-3-chloro-4-[(3,5-difluoropyridin-2-yl)methoxy]-2′-[5-(2-hydroxypropan-2-yl)-2-oxopyridin-1-yl]-5′,6-dimethyl-[1,4′-bipyridin]-2-one], the IC50 at p38a/MK2 was over 1000 nM; on p38a/PRAK, over 316000 nM.
With `Cc1cnc(-n2cccc([C@](C)(O)C3CC3)c2=O)cc1-n1c(C)cc(OCc2ncc(F)cc2F)c(Cl)c1=O` (single isomer, unassigned) [Example 14A, rel-3-chloro-2′-[3-(1-cyclopropyl-1-hydroxyethyl)-2-oxopyridin-1-yl]-4-[(3,5-difluoropyridin-2-yl)methoxy]-5′,6-dimethyl-[1,4′-bipyridin]-2-one], the IC50 was 1.58 nM on p38a/MK2 and 3160 nM on p38a/PRAK.
Take `Cc1cnc(-n2cccc([C@@](C)(O)C3CC3)c2=O)cc1-n1c(C)cc(OCc2ncc(F)cc2F)c(Cl)c1=O` (single isomer, unassigned) [Example 14B, rel-3-chloro-2′-[3-(1-cyclopropyl-1-hydroxyethyl)-2-oxopyridin-1-yl]-4-[(3,5-difluoropyridin-2-yl)methoxy]-5′,6-dimethyl-[1,4′-bipyridin]-2-one]: the IC50 at p38a/MK2 was 1.26 nM; on p38a/PRAK, 3160 nM.
In the case of `Cc1cnc(-n2cccc([C@](C)(O)C3CC3)c2=O)cc1-n1c(C)cc(OCc2ncc(F)cc2F)c(Cl)c1=O` (single isomer, unassigned) [Example 14C, rel-3-chloro-2′-[3-(1-cyclopropyl-1-hydroxyethyl)-2-oxopyridin-1-yl]-4-[(3,5-difluoropyridin-2-yl)methoxy]-5′,6-dimethyl-[1,4′-bipyridin]-2-one], the IC50 at p38a/MK2 is over 1000 nM; at p38a/PRAK, over 316000 nM.
In the case of `Cc1cnc(-n2cccc([C@@](C)(O)C3CC3)c2=O)cc1-n1c(C)cc(OCc2ncc(F)cc2F)c(Cl)c1=O` (single isomer, unassigned) [Example 14D, rel-3-chloro-2′-[3-(1-cyclopropyl-1-hydroxyethyl)-2-oxopyridin-1-yl]-4-[(3,5-difluoropyridin-2-yl)methoxy]-5′,6-dimethyl-[1,4′-bipyridin]-2-one], the IC50 at p38a/MK2 is over 1000 nM; at p38a/PRAK, over 316000 nM.
For the compound `Cc1cnc(-n2ccc(C)c(C(C)(C)O)c2=O)cc1-n1c(C)cc(OCc2ncc(F)cc2F)c(Cl)c1=O` (single isomer, unassigned) [Example 15A, rel-3-chloro-4-[(3,5-difluoropyridin-2-yl)methoxy]-2′-[3-(2-hydroxypropan-2-yl)-4-methyl-2-oxopyridin-1-yl]-5′,6-dimethyl-[1,4′-bipyridin]-2-one], the IC50 at p38a/MK2 is 10 nM; at p38a/PRAK it was 2510 nM.
As to `Cc1cnc(-n2ccc(C)c(C(C)(C)O)c2=O)cc1-n1c(C)cc(OCc2ncc(F)cc2F)c(Cl)c1=O` (single isomer, unassigned) [Example 15B, rel-3-chloro-4-[(3,5-difluoropyridin-2-yl)methoxy]-2′-[3-(2-hydroxypropan-2-yl)-4-methyl-2-oxopyridin-1-yl]-5′,6-dimethyl-[1,4′-bipyridin]-2-one], the IC50 is over 1000 nM at p38a/MK2 and over 316000 nM on p38a/PRAK.
For the compound `Cc1ncc(-n2cccc(C(C)(C)O)c2=O)cc1-n1c(C)cc(OCc2ncc(F)cc2F)c(Cl)c1=O` (single isomer, unassigned) [Example 16A, rel-5′-{3-chloro-4-[(3,5-difluoropyridin-2-yl)methoxy]-6-methyl-2-oxopyridin-1-yl}-3-(2-hydroxypropan-2-yl)-6′-methyl-[1,3′-bipyridin]-2-one], the IC50 is 200 nM on p38a/MK2 and 7940 nM at p38a/PRAK.
The corresponding values for `Cc1ncc(-n2cccc(C(C)(C)O)c2=O)cc1-n1c(C)cc(OCc2ncc(F)cc2F)c(Cl)c1=O` (single isomer, unassigned) [Example 16B, rel-5′-{3-chloro-4-[(3,5-difluoropyridin-2-yl)methoxy]-6-methyl-2-oxopyridin-1-yl}-3-(2-hydroxypropan-2-yl)-6′-methyl-[1,3′-bipyridin]-2-one] are over 1000 nM and over 316000 nM.
On to `Cc1cnc(-n2cccc(C(C)C)c2=O)cc1-n1c(C)cc(OCc2ncc(F)cc2F)c(Cl)c1=O` (single isomer, unassigned) [Example 17A, rel-3-chloro-4-[(3,5-difluoropyridin-2-yl)methoxy]-2′-(3-isopropyl-2-oxopyridin-1-yl)-5′,6-dimethyl-[1,4′-bipyridin]-2-one], for which the IC50 on p38a/MK2 was 1.58 nM; on p38a/PRAK it was 6310 nM.
